The subject of assay [1] is axons of adult mouse DRG neurons. Briefly: Microfluidic devices: exposure limited to axons of DRG neurons. In kind it is cell-based. The text has this:
To determine if the effect of growth inhibitors on mitochondrial recovery was limited to distal axons, we performed FRAP on more proximal segments of the axon shaft in DRG neurons expressing Mito-GFP. For analyses of recovery, the bleached ROIs were divided into four subregions along the axon length so that we could distinguish anterograde from retrograde transport-driven Mito-GFP recovery. […] Since this effect of MAG-Fc on recovery could derive from either axons or cell body, we cultured dissociated DRGs in microfluiclic devices where we could limit exposure to MAG-Fc and TubA to the axons.
For primary culture of rat DRG neurons, L4-5 DRG were harvested in Hibernate-A medium (BrainBits) and then dissociated using type I collagenase (50 U/ml; Gibco) for 20 min at 37° C. and 5% CO2(Twiss et al., 2000). Dissociated ganglia were cultured in complete medium containing 10% FetalPlex animal serum complex (Gemini), 1% N1 Supplement (Sigma-Aldrich), and 10 μM cytosine-arabinoside (Sigma-Aldrich) on laminin/poly-L-lysine-coated substrates. Mouse neurons were used for cultures in microfluidic devices. For these, all cervical, thoracic, and lumbar DRGs were collected and digested with collagenase (4 mg/ml, Worthington) and dispase (1 mg/ml; Sigma-Aldrich) for 45 min at 37° C. and 5% CO2; these cells were plated in DMEM/F12 and 10% FBS at 37° C. and 5% CO2. […]

The subject of assay [2] is sciatic nerve unmyelinated axons. Put plainly: EM count of mitochondria in unmyelinated sciatic nerve axons after nerve injection. The note with it: 2 μl of 1.5 mM, EM 2 h after injection, vs vehicle. In kind it is in vivo, rat. The protocol: To determine if TubA might also affect axonal mitochondria in vivo, we directly injected TubA into the sciatic nerve of adult rats at mid-thigh. […] As this could reflect stalling of mitochondria or increased numbers of anterogradely and/or retrogradely moving mitochondria, we performed in vivo imaging to visualize mitochondrial dynamics.
For in vivo inhibition of HDAC6, the sciatic nerve of anesthetized adult rats was injected twice at mid-thigh level with 2 μl of 1.5 mM TubA on the right and 2 μl of DMSO (vehicle control) on the left (isofluorane inhalation was used for anesthesia). Nerve injection sites were separated by 2 mm. […]
Vesicle trafficking was quantified using differential ImageJ Difference Tracker Plug-in (Andrews et al., 2010). 50-80-μm long unbranched axon segments at approximately the mid-region between growth cone and cell body were analyzed. […] The distance between the growth tip at end of the post-CALI sequence and the pre-CALI baseline was measured using LAS-X software. Movement of ≥0.5 μm toward the axon shaft was counted as retracted. Fluorescence emission of the Mito-KR post-CALI was analyzed using ImageJ. […] For axon shaft FRAP analyses, each 50-μm bleached ROI was divided into […], and the fluorescence intensity recovery was measured as described above. […] A minimum of 75 unmyelinated axons was analyzed for each nerve. […]

For `CN1CCc2c(c3ccccc3n2Cc2ccc(C(=O)NO)cc2)C1` [TubA, tubastatin], in assay [1] (TubA in axonal compartment), the “effect on MAG-Fc-dependent decrease in distal axon mitochondria” value is “prevented by TubA treatment”. For the same molecule, the “axon retraction and end bulb formation in distal axons after MAG-Fc” value in assay [1] (TubA treatment) was “prevented the axon retraction and end bulb formation”. For the same molecule, the “mitochondrial numbers in unmyelinated axons” value in assay [2] is reported as “significantly increased mitochondrial numbers”.

Source of the values: patent publication US20210330756A1, “Acetylation of Miro1” (University of South Carolina, priority 2020, published 2021).
